According to patent US10457707B2, “Substituted urea depsipeptide analogs as activators of the CLPP endopeptidase” (priority 2015, dated 2019):
Converted amounts (≈) assume the structure as drawn. Where two headings read alike, the source gives them in different places.

Key:
Format in all cases: cell-based
E. coli K12ΔtolC = experiment: Minimal inhibitory concentration assay (microbroth dilution)
[1] = tested on: Staphylococcus aureus, USA 300; experiment: Minimal inhibitory concentration assay; conditions: USA300, read-out: Minimal Inhibitory Concentrations S. aureus USA 300
Summary of the method: (§1)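 Compound is serially diluted two-fold in the appropriate broth, and bacterial inoculum at about 10^5 cfu/mL is added so the highest final concentration is 200 μM. Plates stay overnight at 37 °C under aerobic conditions before growth is scored by eye.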

[2] = tested on: Staphylococcus aureus, USA 300 wherein ClpP is inactivated; experiment: Minimal inhibitory concentration assay
Summary of the method: as §1

[3] = tested on: Staphylococcus aureus, ATCC 29213; experiment: Minimal inhibitory concentration assay (microbroth dilution); conditions: ATCC29213, read-out: Minimal Inhibitory Concentrations S. aureus ATCC 29213
Summary of the method: as §1

[4] = tested on: Streptococcus pneumoniae, DAW27; experiment: as above; conditions: DAW27, read-out: Minimal Inhibitory Concentrations S. pneumoniae DAW27
Summary of the method: as §1

[5] = tested on: Staphylococcus aureus, NRS70; experiment: as above
Summary of the method: as §1

[6] = tested on: Bacillus subtilis, ATCC 23857; experiment: as above
Summary of the method: as §1

[7] = tested on: Enterococcus faecalis, ATCC 33186; experiment: as above
Summary of the method: as §1

[8] = tested on: Vero (kidney epithelial cells; ATCC CCL-81); experiment: Cytotoxicity assay (CellTiter-Glo cell viability, 72 hours); conditions: Vero cells, 72 hours, growth inhibition; read-out: Cytotoxicity IC50
Summary of the method: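 Viability measured by CellTiter-Glo luminescence after 72-hour compound exposure (serial dilutions, DMSO control) of Vero monolayers seeded at 5000 cells/well in 10% FBS DMEM. IC50 values are the range of two biologically independent experiments, each run in duplicate.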

[9] = tested on: Streptococcus pyogenes, ATCC 700294; experiment: Minimal inhibitory concentration assay (microbroth dilution)
Summary of the method: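 Plates with two-fold compound dilution series in broth were incubated overnight, aerobically, at 37° C, following CLSI microdilution guidance.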

[10] = Staphylococcus aureus, NRS70; read-out: Minimal Inhibitory Concentrations S. aureus NRS70
[11] = Bacillus subtilis, ATCC23857; read-out: Minimal Inhibitory Concentrations B. subtilis ATCC 23857
[12] = Enterococcus faecalis, ATCC33186; read-out: Minimal Inhibitory Concentrations E. faecalis ATCC 33186
[13] = Streptococcus pyogenes, ATCC700294, read-out: Minimal Inhibitory Concentrations S. pyogenes ATCC 700294
[14] = Staphylococcus aureus, NRS70, read-out: Minimal Inhibitory Concentrations S. aureus NRS70
[15] = Bacillus subtilis, ATCC23857, read-out: Minimal Inhibitory Concentrations B. subtilis ATCC 23857
[16] = Enterococcus faecalis, ATCC33186, read-out: Minimal Inhibitory Concentrations E. faecalis ATCC 33186
[17] = Streptococcus pyogenes, ATCC700294; read-out: Minimal Inhibitory Concentrations S. pyogenes ATCC 700294

| SMILES | Minimal Inhibitory Concentrations E. coli K12ΔtolC (E. coli K12ΔtolC) [µM] | MIC [1] [µM] | Minimal Inhibitory Concentrations S. aureus USA 300 ΔClpP [2] [µM] | MIC [3] [µM] | MIC [4] [µM] | MIC [5, 10] [µM] | MIC [6, 11] [µM] | MIC [7, 12] [µM] | IC50 [8] [µM] | MIC [9, 13] [µM] | MIC [5, 14] [µM] | MIC [6, 15] [µM] | MIC [7, 16] [µM] | MIC ([9]; S. pyogenes ATCC 700294; read-out: Minimal Inhibitory Concentrations S. pyogenes ATCC 700294) [µM] | MIC ([5]; S. aureus NRS70; read-out: Minimal Inhibitory Concentrations S. aureus NRS70) [µM] | MIC [9, 17] [µM] |
| --- | --- | --- | --- | --- | --- | --- | --- | --- | --- | --- | --- | --- | --- | --- | --- | --- |
| O=C(N[C@H](CO)[C@H](O)c1ccc([N+](=O)[O-])cc1)C(Cl)Cl [Chloroamphenicol, chloramphenicol, reference compound] | 0.78 | 3.1 (≈ 1 µg/mL) | 6.3 | 3.13 (≈ 1.01 µg/mL) | 0.78 (≈ 0.252 µg/mL) | 3.1 (≈ 1 µg/mL) | 3.1 (≈ 1 µg/mL) | 0.39 (≈ 0.126 µg/mL) | – | – | – | – | – | – | – | – |
| C[C@@H]1C[C@H]2C(=O)OC[C@H](NC(=O)[C@H](Cc3ccccc3)NC(=O)Nc3ccccc3)C(=O)N3CCC[C@H]3C(=O)N3CCCC[C@H]3C(=O)N[C@@H](C)C(=O)N2C1 [Compound 1, (S)—N-((2R,6S,8aS,14aS,20S,23aS)-2,6-dimethyl-5,8,14,19,23-pentaoxooctadecahydro-1H,5H,14H,19H-pyrido[2,1-i]dipyrrolo[2,1-c:2′,1′-l][1]oxa[4,7,10,13]tetraazacyclohexadecin-20-yl)-3-phenyl-2-(3-phenylureido)propanamide] | 200 | – | – | 6.25 (≈ 4.65 µg/mL) | 0.78 (≈ 0.58 µg/mL) | – | – | – | > 100 | 1.56 (≈ 1.16 µg/mL) | 6.25 (≈ 4.65 µg/mL) | 1.56 (≈ 1.16 µg/mL) | 3.13 (≈ 2.33 µg/mL) | – | – | – |
| C[C@@H]1C[C@H]2C(=O)OC[C@H](NC(=O)[C@H](Cc3ccccc3)NC(=O)Nc3ccc(OC(F)(F)F)cc3)C(=O)N3CCC[C@H]3C(=O)N3CCCC[C@H]3C(=O)N[C@@H](C)C(=O)N2C1 [Compound 2, (S)—N-((2R,6S,8aS,14aS,20S,23aS)-2,6-dimethyl-5,8,14,19,23-pentaoxooctadecahydro-1H,5H,14H,19H-pyrido[2,1-i]dipyrrolo[2,1-c:2′,1′-l][1]oxa[4,7,10,13]tetraazacyclohexadecin-20-yl)-3-phenyl-2-(3-(4-(trifluoromethoxy)phenyl)ureido)propanamide] | 12.5 | – | – | – | 0.02 (≈ 0.0166 µg/mL) | – | 0.2 (≈ 0.166 µg/mL) | 0.02 (≈ 0.0166 µg/mL) | – | – | – | – | – | 0.10 (≈ 0.0828 µg/mL) | 0.20 (≈ 0.166 µg/mL) | – |
| C[C@@H]1C[C@H]2C(=O)OC[C@H](NC(=O)[C@H](Cc3ccccc3)NC(=O)Nc3ccc(Cl)cc3)C(=O)N3CCC[C@H]3C(=O)N3CCCC[C@H]3C(=O)N[C@@H](C)C(=O)N2C1 [Compound 3, (S)-2-(3-(4-chlorophenyl)ureido)-N-((2R,6S,8aS,14aS,20S,23aS)-2,6-dimethyl-5,8,14,19,23-pentaoxooctadecahydro-1H,5H,14H,19H-pyrido[2,1-i]dipyrrolo[2,1-c:2′,1′-l][1]oxa[4,7,10,13]tetraazacyclohexadecin-20-yl)-3-phenylpropanamide] | 25 | – | – | 1.56 (≈ 1.21 µg/mL) | 0.2 (≈ 0.156 µg/mL) | – | – | – | 63 ± 5.8 | 0.39 (≈ 0.304 µg/mL) | 0.78 (≈ 0.607 µg/mL) | 0.78 (≈ 0.607 µg/mL) | 0.2 (≈ 0.156 µg/mL) | – | – | – |
| CCc1ccc(NC(=O)N[C@@H](Cc2ccccc2)C(=O)N[C@H]2COC(=O)[C@@H]3C[C@@H](C)CN3C(=O)[C@H](C)NC(=O)[C@@H]3CCCCN3C(=O)[C@@H]3CCCN3C2=O)cc1 [Compound 4, (S)—N-((2R,6S,8aS,14aS,20S,23aS)-2,6-dimethyl-5,8,14,19,23-pentaoxooctadecahydro-1H,5H,14H,19H-pyrido[2,1-i]dipyrrolo[2,1-c:2′,1′-l][1]oxa[4,7,10,13]tetraazacyclohexadecin-20-yl)-2-(3-(4-ethylphenyl)ureido)-3-phenylpropanamide] | 25 | – | – | 0.78 (≈ 0.602 µg/mL) | 0.04 (≈ 0.0309 µg/mL) | 0.39 (≈ 0.301 µg/mL) | 0.2 (≈ 0.154 µg/mL) | 0.1 (≈ 0.0772 µg/mL) | – | – | – | – | – | – | – | 0.2 (≈ 0.154 µg/mL) |
| C[C@@H]1C[C@H]2C(=O)OC[C@H](NC(=O)[C@H](Cc3ccccc3)NC(=O)Nc3ccc(N(C)C)cc3)C(=O)N3CCC[C@H]3C(=O)N3CCCC[C@H]3C(=O)N[C@@H](C)C(=O)N2C1 [Compound 5, (S)—N-((2R,6S,8aS,14aS,20S,23aS)-2,6-dimethyl-5,8,14,19,23-pentaoxooctadecahydro-1H,5H,14H,19H-pyrido[2,1-i]dipyrrolo[2,1-c:2′,1′-l][1]oxa[4,7,10,13]tetraazacyclohexadecin-20-yl)-2-(3-(4-(dimethylamino)phenyl)ureido)-3-phenylpropanamide] | 50 | – | – | 6.25 (≈ 4.92 µg/mL) | 0.39 (≈ 0.307 µg/mL) | – | – | – | 91.3 ± 12.7 | 0.78 (≈ 0.614 µg/mL) | 1.56 (≈ 1.23 µg/mL) | 0.78 (≈ 0.614 µg/mL) | 0.78 (≈ 0.614 µg/mL) | – | – | – |
| COc1ccc(NC(=O)N[C@@H](Cc2ccccc2)C(=O)N[C@H]2COC(=O)[C@@H]3C[C@@H](C)CN3C(=O)[C@H](C)NC(=O)[C@@H]3CCCCN3C(=O)[C@@H]3CCCN3C2=O)cc1 [Compound 6, (S)—N-((2R,6S,8aS,14aS,20S,23aS)-2,6-dimethyl-5,8,14,19,23-pentaoxooctadecahydro-1H,5H,14H,19H-pyrido[2,1-i]dipyrrolo[2,1-c:2′,1′-l][1]oxa[4,7,10,13]tetraazacyclohexadecin-20-yl)-2-(3-(4-Methoxyphenyl)ureido)-3-phenylpropanamide] | 50 | – | – | 3.13 (≈ 2.42 µg/mL) | 0.2 (≈ 0.155 µg/mL) | – | – | – | > 100 | 0.39 (≈ 0.302 µg/mL) | 3.13 (≈ 2.42 µg/mL) | 1.56 (≈ 1.21 µg/mL) | 0.78 (≈ 0.604 µg/mL) | – | – | – |
| C[C@@H]1C[C@H]2C(=O)OC[C@H](NC(=O)[C@H](Cc3ccccc3)NC(=O)Nc3ccccc3Cl)C(=O)N3CCC[C@H]3C(=O)N3CCCC[C@H]3C(=O)N[C@@H](C)C(=O)N2C1 [Compound 7, (S)-2-(3-(2-chlorophenyl)ureido)-N-((2R,6S,8aS,14aS,20S,23aS)-2,6-dimethyl-5,8,14,19,23-pentaoxooctadecahydro-1H,5H,14H,19H-pyrido[2,1-i]dipyrrolo[2,1-c:2′,1′-l][1]oxa[4,7,10,13]tetraazacyclohexadecin-20-yl)-3-phenylpropanamide] | 200 | – | – | 12.5 (≈ 9.73 µg/mL) | 0.78 (≈ 0.607 µg/mL) | – | – | – | > 100 | 3.13 (≈ 2.44 µg/mL) | 12.5 (≈ 9.73 µg/mL) | 6.25 (≈ 4.86 µg/mL) | 3.13 (≈ 2.44 µg/mL) | – | – | – |
| COc1cccc(NC(=O)N[C@@H](Cc2ccccc2)C(=O)N[C@H]2COC(=O)[C@@H]3C[C@@H](C)CN3C(=O)[C@H](C)NC(=O)[C@@H]3CCCCN3C(=O)[C@@H]3CCCN3C2=O)c1 [Compound 8, (S)—N-((2R,6S,8aS,14aS,20S,23aS)-2,6-dimethyl-5,8,14,19,23-pentaoxooctadecahydro-1H,5H,14H,19H-pyrido[2,1-i]dipyrrolo[2,1-c:2′,1′-l][1]oxa[4,7,10,13]tetraazacyclohexadecin-20-yl)-2-(3-(3-methoxyphenyl)ureido)-3-phenylpropanamide] | 200 | – | – | 3.13 (≈ 2.42 µg/mL) | 0.39 (≈ 0.302 µg/mL) | 3.13 (≈ 2.42 µg/mL) | 3.13 (≈ 2.42 µg/mL) | 1.56 (≈ 1.21 µg/mL) | – | – | – | – | – | – | – | 0.78 (≈ 0.604 µg/mL) |
| C[C@@H]1C[C@H]2C(=O)OC[C@H](NC(=O)[C@H](Cc3ccccc3)NC(=O)Nc3ccc4ccn(C)c4c3)C(=O)N3CCC[C@H]3C(=O)N3CCCC[C@H]3C(=O)N[C@@H](C)C(=O)N2C1 [Compound 12, (S)—N-((2R,6S,8aS,14aS,20S,23aS)-2,6-dimethyl-5,8,14,19,23-pentaoxooctadecahydro-1H,5H,14H,19H-pyrido[2,1-i]dipyrrolo[2,1-c:2′,1′-l][1]oxa[4,7,10,13]tetraazacyclohexadecin-20-yl)-2-(3-(1-methyl-1H-indol-6-yl)ureido)-3-phenylpropanamide] | – | – | – | 2.5 (≈ 1.99 µg/mL) | 0.3 (≈ 0.239 µg/mL) | – | – | – | 90 ± 7.6 | 0.6 (≈ 0.478 µg/mL) | 2.5 (≈ 1.99 µg/mL) | 2.5 (≈ 1.99 µg/mL) | 1.25 (≈ 0.996 µg/mL) | – | – | – |
| NC[C@H]1O[C@H](O[C@H]2[C@H](O)[C@@H](O[C@H]3O[C@H](CO)[C@@H](O)[C@H](N)[C@H]3O)[C@H](N)C[C@@H]2N)[C@H](O)[C@@H](O)[C@@H]1O [Kanamycin, kanamycin, reference compound] | 0.4 | – | – | 1.56 (≈ 0.756 µg/mL) | 25 (≈ 12.1 µg/mL) | 50 (≈ 24.2 µg/mL) | 0.1 (≈ 0.0485 µg/mL) | 25 (≈ 12.1 µg/mL) | – | – | – | – | – | – | – | 12.5 (≈ 6.06 µg/mL) |
